From patent US10406091B2, “Skin anti-ageing composition” (Conopco, Inc., priority 2011, dated 2019)

Test system: interleukin 8 (IL-8)
Assay: IL-8 ELISA on supernatant of TNF alpha-challenged primary epidermal keratinocytes pre-treated with actives
Type: cell-based, human
Conditions: 24 h pre-treatment, then 10 ng/ml TNF alpha 24 h
Description: An in-vitro model has been developed to investigate the impact of an inflammatory stimulus on epidmeral keratinocytes, in which: • a. Cells are grown in 24-well (2.0 cm^2) plates. • b. The cells are pre-treated with active ingredient of interest for 24 hours then challenged with an inflammatory stimulus, 10 ng/ml tumour necrosis factor alpha (TNFa) in addition to the active ingredient, for a further 24 hours. • c. Cell culture supernatant and cell lysates were harvested at 24 hours (t24) post-TNFa treatment. • d. All cell culture supernatant was assayed for IL-8 as a measure of inflammatory response and cell culture lysate was assayed for total protein (BCA), as a measure of cytotoxicity.
Primary human epidermal keratinocyte cells were cultured and passaged in fully supplemented KGM-Gold media (Lonza) with 70 μM calcium added. Cells were routinely plated out in 24-well tissue culture dishes, at a seeding density of ˜50,000 cells/well in 1 ml medium/well for 24 hours, and incubated at 37° C. in 5% CO2.
Test solutions were prepared in KGM-Gold media without supplemented hydrocortisone and antibiotic. Media was removed from the cells and test solutions were added for 24 hours. The epidermal keratinocytes were then stimulated with an inflammatory challenge for 24 hours using 10 ng/ml TNFa in the presence of the test solutions. The treated supernatant (cell culture supernatant) was removed and stored at −20° C. prior to IL-8 analysis.
The epidermal keratinocytes were washed with 1 ml of Dulbecco's phosphated buffer solution (PBS) and 250 μl of ice cold lysis buffer (1% NP-40, 0.1% sodium deoxycholate, 0.1% sodium dodecyl sulphate, 6 mM sodium chloride and 0.05 M Tris at pH 7.6) containing protease inhibitor cocktail (Roche, Complete™ mini tablets 1 836 170) was added. The lysates were clarified by scraping the samples with a 1 ml syringe plunger and passing through an Acrowell™ filter plate (Pall) using an Acroprep™ vacuum manifold (Pall) into a 96 well microwell plate (Sterilin). The clarified lysates were stored at −20° C. until total protein estimation.
The total protein concentration of each clarified cell lysate was measured using the Pierce BCA protein assay kit so that the response to effect of the test substances could be normalised to ug protein. A set of eight standard solutions ranging from 0 to 1200 μg/ml protein was prepared from the supplied 2 mg/ml bovine serum albumin (BSA) stock solution. 10 μl of standard or cell lysate was added to duplicate wells of a flat-bottomed 96-well plate. The reagent solution was prepared according to the kit instructions from 50 parts reagent A and 1 part reagent B. 200 μl of the final reagent was added to each well. The plate was mixed, covered and incubated at 37° C. for 30 minutes and absorbance read at 562 nm. A protein standard curve was constructed and used to determine the protein concentration of each cell lysate.
The IL-8 concentration of each cell culture supernatant was assayed using the DuoSet Human IL-8 ELISA assay (R&D Systems DY208) according to the manufacturer's instructions. The IL-8 capture antibody was bound to the microtitre plate (Greiner) overnight at room temperature in phosphate buffered saline and removed by washing three times was wash buffer (0.05% Tween 20 in PBS) on an automatic plate washer. The plate was blocked with 300 μl of 1% bovine serum albumin (BSA) in phosphate buffered saline for 1 hour at room temperature and washed 3 times in wash buffer. Seven IL-8 standards were prepared in reagent diluent (0.1% BSA, 0.05% Tween 20 in PBS) at concentrations ranging from […]. 100 μl of cell culture supernatant or standard was added to duplicate wells and incubated at room temperature for 2 hours. The plate was washed 3 times with wash buffer before 100 μl of IL-8 detection antibody diluted in reagent diluent was added and incubated for 2 hours at room temperature. […]

| Structure (SMILES) | IL-8 (pg/μg protein) (sterol alone 1 uM) | IL-8 (pg/μg protein) (sterol alone 5 uM) | IL-8 (pg/μg protein) (sterol alone 10 uM) | IL-8 (pg/μg protein) (myricetin alone 0.5 ug/ml) | IL-8 (pg/μg protein) (myricetin alone 1 ug/ml) | IL-8 (pg/μg protein) (myricetin alone 2.5 ug/ml) |
| --- | --- | --- | --- | --- | --- | --- |
| CC(C)[C@@H](C)/C=C/[C@@H](C)[C@H]1CC[C@H]2[C@@H]3CC=C4C[C@@H](O)CC[C@]4(C)[C@H]3CC[C@]12C [Brassicasterol] | 3.394 pg/μg protein | 4.448 pg/μg protein | 4.862 pg/μg protein | – | – | – |
| O=c1c(O)c(-c2cc(O)c(O)c(O)c2)oc2cc(O)cc(O)c12 [Myricetin] | – | – | – | 3.874 pg/μg protein | 2.741 pg/μg protein | 1.784 pg/μg protein |
| CC(C)=CCC[C@@H](C)[C@H]1CC[C@H]2[C@@H]3CC=C4C[C@@H](O)CC[C@]4(C)[C@H]3CC[C@]12C [Desmosterol] | 4.756 pg/μg protein | 4.799 pg/μg protein | 4.711 pg/μg protein | – | – | – |
| CC[C@H](/C=C/[C@@H](C)[C@H]1CC[C@H]2[C@@H]3CC=C4C[C@@H](O)CC[C@]4(C)[C@H]3CC[C@]12C)C(C)C [Stigmasterol] | 4.638 pg/μg protein | 3.87 pg/μg protein | 4.964 pg/μg protein | – | – | – |
